In one data set the test system is SJG2 glioblastoma. On the set-up: method as in PMID 36296713, PMID 36142383. The settings on record: cited from earlier work.
The test system of a further data set is U87 glioblastoma. On the set-up: method as in PMID 36296713, PMID 36142383. To be noted: cited from earlier work.
The subject of another data set is H460 lung. On the set-up: method as in PMID 36296713, PMID 36142383. To be noted: cited from earlier work.
For another data set, the system named is MCF7 breast. On the set-up: method as in PMID 36296713, PMID 36142383. To be noted: cited from earlier work.
The test system of another data set is multiple cell lines. The arrangement: method as in PMID 36296713, PMID 36142383. The settings on record: mean over all cell lines tested; cited from earlier work.
In data set [1] the test system is ADDP ovarian variant (cisplatin-resistant A2780 clone). The arrangement: method as in PMID 36296713, PMID 36142383. To be noted: cited from earlier work.
In the next data set the test system is A431 skin. On the set-up: method as in PMID 36296713, PMID 36142383. To be noted: cited from earlier work.
The next data set has as its system A2780 ovarian. The arrangement: method as in PMID 36296713, PMID 36142383. The settings on record: cited from earlier work.
A further data set concerns HT29 colon. On the set-up: method as in PMID 36296713, PMID 36142383. To be noted: cited from earlier work.
Another data set has as its system BE2C neuroblastoma. On the set-up: method as in PMID 36296713, PMID 36142383. The settings on record: cited from earlier work.
A further data set deals with Du145 prostate. The arrangement: method as in PMID 36296713, PMID 36142383. The settings on record: cited from earlier work.
The next data set has as its system MIA pancreas. The arrangement: method as in PMID 36296713, PMID 36142383. The settings on record: cited from earlier work.
Another data set concerns MCF10A / Du145. On the set-up: method as in PMID 36296713, PMID 36142383. The settings on record: GI50 in MCF10A/GI50 in Du145, from data of previous studies; cited from earlier work.
In data set [2] the test system is HT29 colon cells. On the set-up: method as in PMID 36296713, PMID 36142383. The settings on record: cited from earlier work.
The test system of data set [3] is HT29 colon cells. The experiment in a line: Mitochondrial membrane potential, TMRE-MtMP assay. Format: cell-based, human. The settings on record: treatment at GI50 concentration (FCCP positive control 20 μM). The source says: To study the MtMP changes in treated cells, a TMRE-MtMP Assay Kit (Abcam, Cambridge, MA, USA) was used (see Supplementary Materials).
TMRE was used to stain HT29 colon cells, and treatment with the complexes and ligands was completed at each specific GI50 concentration. The MtMP changes detected are expressed as RFU. Additionally, lower RFU values correspond to a decline in mitochondrial activity. […]
dimethylthiazol-2-yl]-2,5-diphenyltetrazolium bromide) assay and absorbance was read at 540 nm. An eight-point dose response curve was produced from which the GI50 value was calculated, representing the drug concentration at which cell growth was inhibited by 50% based on the difference between the optical density values on day 0 and those at the end of drug exposure. […]
5. Mitochondrial Membrane Potential (MtMP)
In 96-well plates, 25,000 cells/mL of HT29 colon cells in DMEM were seeded. Cells were treated with a GI50 drug concentration for each complex. […]
washed with PBS and stained with 1 μM tetramethylrhodamine, ethyl ester (TMRE) and incubated for 30 min. TMRE was then removed, and cells were then re-washed with PBS (0.2% BSA), after which phenol red free media was added. The plates were directly scanned to measure fluorescence (expressed as RFU), using the Glo-Max®-Multimode […]
microplate reader (Promega Corporation, Alexandra, VIC, Australia) at an […]
For the positive control, 20 μM carbonyl cyanide 4-(trifluoromethoxy) phenylhydrazone (FCCP)) was added to the cells and incubated for 10 min. The cells were washed with PBS (0.2% BSA) and stained with TMRE (1 μM) for 30 min; this was removed and phenol red free media was added, and the final solution was scanned as mentioned above. […]

The test system of data set [4] is non-tumour derived MCF10A breast line. The arrangement: method as in PMID 36296713, PMID 36142383. To be noted: cited from earlier work.
On the set-up of data set [5]: method as in PMID 24951889. The settings on record: water, from the literature; cited from earlier work.
For data set [6], the system named is HT29 colon cells. The experiment in a line: ROS production, DCFDA/H2DCFDA cellular ROS assay. Type of data set: cell-based, human. To be noted: treatment at GI50 concentration (TBHP positive control 20 μM). The protocol:
To determine the presence of ROS in treated cells, a DCFDA/H2DCFDA-cellular ROS Assay Kit (Abcam, Cambridge, MA, USA) was utilised, as previously reported. The ROS potential of platinum(II) precursors and platinum(IV) scaffolds, which were determined using the same method, were also presented in this study for comparison.
Additionally, the ROS potential of the platinum(II) precursors and platinum(IV) scaffolds was determined previously and was presented here to allow for comparison (Table 10 and Figure 13). […] Treatment with the complexes and ligands was completed at each specific GI50 concentration. […]
dimethylthiazol-2-yl]-2,5-diphenyltetrazolium bromide) assay and absorbance was read at 540 nm. An eight-point dose response curve was produced from which the GI50 value was calculated, representing the drug concentration at which cell growth was inhibited by 50% based on the difference between the optical density values on day 0 and those at the end of drug exposure.
4. Reactive Oxygen Species (ROS) Potential
A total of 25,000 cells/mL of HT29 cells in DMEM were seeded in 96-well plates. Cells were washed with 1X kit buffer, and then stained with 25 μM 2’,7’-dichlorofluorescein diacetate (DCFH-DA) and incubated for 45 min. DCFH-DA was then removed, and cells were then re-washed with 1X kit buffer, after which phenol red free media was added.
Cells were then treated with a GI50 drug concentration for each complex. The plates were directly scanned to measure fluorescence (relative fluorescence units (RFU)) at different time points using the Glo-Max®-Multimode microplate reader (Promega Corporation, Alexandra, VIC, Australia) at an excitation/emission of 485/535 nm. […]

Read-outs that look alike come from different tables or passages of the source. Marks after values point to notes of the source that are not given here. Some results are limits rather than exact numbers.

Usually GI50 stands for the concentration that inhibits growth by half. As to `O=C1[O][Pt]2([NH][C@@H]3CCCC[C@H]3[NH]2)[O]C1=O` (relative stereo) [Oxaliplatin, trans-L-(1R,2R-diaminocyclohexane) oxalatoplatinum(II)], the GI50 with SJG2 glioblastoma was 3000 ± 1200 nM; with U87 glioblastoma it was 1800 ± 200 nM; in the data set with H460 lung, 1600 ± 100 nM; in the data set on MCF7 breast, 500 ± 100 nM; with multiple cell lines it was 1460 ± 320 nM; in data set [1], 800 ± 100 nM. Also, the GI50 in the data set with A431 skin is 4100 ± 500 nM; in the data set with A2780 ovarian, 160 ± 100 nM; in the data set with HT29 colon, 900 ± 200 nM; in the data set on BE2C neuroblastoma, 900 ± 200 nM; in the data set on Du145 prostate, 2900 ± 400 nM; in the data set with MIA pancreas, 900 ± 200 nM.

As for `Cc1cc2c3c4c1=CC=C[N]4[Pt+2]([OH])([OH])[N]3C=CC=2.N[C@H]1CCCC[C@@H]1N` [5MESS(IV)(OH)2], the GI50 with SJG2 glioblastoma was 640 ± 70 nM; in the data set with U87 glioblastoma, 900 ± 58 nM; with H460 lung it was 60 ± 5 nM; with MCF7 breast it was 1200 ± 390 nM; in the data set on multiple cell lines it was 443 ± 81 nM; in data set [1] it was 130 ± 22 nM. Further, the GI50 in the data set with A431 skin is 360 ± 58 nM; in the data set with A2780 ovarian, 240 ± 9 nM; in the data set with HT29 colon, 60 ± 6 nM; in the data set with BE2C neuroblastoma, 1400 ± 300 nM; with Du145 prostate it was 41 ± 5 nM; in the data set on MIA pancreas, 160 ± 29 nM. Moreover, the GI50 in data set [4] was 130 ± 19 nM. In addition, the “Selectivity Cytotoxicity Index (SCI)” value in the data set on MCF10A / Du145 is reported as 3.17. The “ROS Production” value in the data set with HT29 colon cells [2] (HT29, 24 h) was 234 ± 1 RFU; in the data set with HT29 colon cells [2] (HT29, 48 h), 323 ± 9 RFU; in the data set with HT29 colon cells [2] (HT29, 72 h), 335 ± 2 RFU. In addition, the “MtMP Changes” value amounted to 301 ± 14 RFU in the data set with HT29 colon cells [3] (HT29, 24 h); 214 ± 9 RFU in the data set with HT29 colon cells [3] (HT29, 48 h); 198 ± 4 RFU in the data set on HT29 colon cells [3] (HT29, 72 h).

On to `Cc1c(C)c2c3c4c1=CC=C[N]4[Pt+2]([OH])([OH])[N]3C=CC=2.N[C@H]1CCCC[C@@H]1N` [56MESS(IV)(OH)2], for which the GI50 is 210 ± 45 nM in the data set on SJG2 glioblastoma; 190 ± 23 nM in the data set with U87 glioblastoma; 190 ± 150 nM in the data set with H460 lung; 480 ± 140 nM in the data set on MCF7 breast; 151 ± 50 nM in the data set with multiple cell lines; 170 ± 120 nM in data set [1]. For the same compound, the GI50 is 120 ± 22 nM with A431 skin; 59 ± 7 nM with A2780 ovarian; 36 ± 7 nM with HT29 colon; 240 ± 22 nM in the data set on BE2C neuroblastoma; 15 ± 2.6 nM with Du145 prostate; 43 ± 2.5 nM in the data set with MIA pancreas. In addition, the GI50 in [4] is 61 ± 7 nM. In the data set on MCF10A / Du145, the “Selectivity Cytotoxicity Index (SCI)” value is reported as 4.07. Besides, the “ROS Production” value was 259 ± 3 RFU in the data set with HT29 colon cells [2] (HT29, 24 h); 356 ± 11 RFU in the data set with HT29 colon cells [2] (HT29, 48 h); 438 ± 7 RFU with HT29 colon cells [2] (HT29, 72 h). Also, the “MtMP Changes” value is given as 245 ± 16 RFU with HT29 colon cells [3] (HT29, 24 h); 177 ± 11 RFU in the data set on HT29 colon cells [3] (HT29, 48 h); 125 ± 12 RFU in the data set on HT29 colon cells [3] (HT29, 72 h).

On to `N.N.O=C([O-])C1(C(=O)[O-])CCC1.[Pt+2]` [Carboplatin, cis-diammine(1,1-cyclobutanedicarboxylato) platinum(II)], for which the GI50 in the data set with SJG2 glioblastoma was 5700 ± 200 nM; with U87 glioblastoma, over 50000 nM; in the data set on H460 lung, 14000 nM; with MCF7 breast, over 50000 nM; with multiple cell lines, 32200 nM; in [1], over 50000 nM. Moreover, the GI50 with A431 skin was 24000 nM; with A2780 ovarian, 9200 ± 2900 nM; with HT29 colon, over 50000 nM; with BE2C neuroblastoma, 19000 nM; in the data set with Du145 prostate, 15000 nM; in the data set on MIA pancreas, over 50000 nM. Further, the GI50 in data set [4] was over 50000 nM. The Solubility in data set [5] is recorded as 11.7 * mg/mL. The “Selectivity Cytotoxicity Index (SCI)” value in the data set with MCF10A / Du145 was 3.33.

On to `N#CC(C#N)=NNc1ccc(OC(F)(F)F)cc1` [FCCP, carbonyl cyanide 4-(trifluoromethoxy) phenylhydrazone], for which the “MtMP Changes” value in the data set on HT29 colon cells [3] (HT29, 24 h) worked out at 194 ± 10 RFU; in the data set with HT29 colon cells [3] (HT29, 48 h), 143 ± 5 RFU; with HT29 colon cells [3] (HT29, 72 h), 80 ± 5 RFU.

Take `N[C@H]1CCCC[C@@H]1N.[OH][Pt+2]1([OH])[N]2C=CC=c3ccc4c(c32)[N]1C=CC=4` [PHENSS(IV)(OH)2]: the GI50 in the data set with SJG2 glioblastoma was 1700 ± 350 nM; with U87 glioblastoma it was 4900 ± 610 nM; in the data set with H460 lung, 1700 ± 200 nM; in the data set on MCF7 breast, 16000 nM; in the data set on multiple cell lines, 3320 ± 880 nM; in data set [1], 1300 ± 350 nM. For the same compound, the GI50 with A431 skin is 4300 ± 530 nM; with A2780 ovarian, 800 ± 84 nM; in the data set on HT29 colon it was 710 ± 300 nM; in the data set with BE2C neuroblastoma, 3000 ± 530 nM; in the data set with Du145 prostate, 310 ± 92 nM; with MIA pancreas it was 3400 ± 2200 nM. The GI50 in [4] was 1700 ± 200 nM. The “Selectivity Cytotoxicity Index (SCI)” value with MCF10A / Du145 is listed as 5.48. In addition, the “ROS Production” value in the data set with HT29 colon cells [2] (HT29, 24 h) is 144 ± 5 RFU; in the data set on HT29 colon cells [2] (HT29, 48 h) it was 273 ± 4 RFU; with HT29 colon cells [2] (HT29, 72 h), 303 ± 1 RFU. Moreover, the “MtMP Changes” value with HT29 colon cells [3] (HT29, 24 h) is reported as 321 ± 17 RFU; in the data set on HT29 colon cells [3] (HT29, 48 h) it was 241 ± 10 RFU; in the data set with HT29 colon cells [3] (HT29, 72 h), 216 ± 8 RFU.

With `CC(C)(C)OO` [TBHP, tert-butyl hydroperoxide], the “ROS Production” value with HT29 colon cells [6] (HT29, 24 h) was 658 ± 28 RFU; in the data set on HT29 colon cells [6] (HT29, 48 h), 504 ± 15 RFU; with HT29 colon cells [6] (HT29, 72 h), 497 ± 10 RFU.

The values above are taken from paper PMC10177380 (Cancers, 2023).
